Results as given in patent publication US10670605B2, “Cysteine reactive probes and uses thereof” (The Scripps Research Institute, priority 2015, dated 2020).

Experiments:
Assay in all cases: Competitive isoTOP-ABPP in situ (fragment-treated cells)
Type in all cases: cell-based
Settings in all cases: 200 μM, insitu
[1] = target: T1, cysteines in MDA-MB-231 and Ramos cells (Homo sapiens, UniProt P13667)
T1 sequence (P13667 21-645): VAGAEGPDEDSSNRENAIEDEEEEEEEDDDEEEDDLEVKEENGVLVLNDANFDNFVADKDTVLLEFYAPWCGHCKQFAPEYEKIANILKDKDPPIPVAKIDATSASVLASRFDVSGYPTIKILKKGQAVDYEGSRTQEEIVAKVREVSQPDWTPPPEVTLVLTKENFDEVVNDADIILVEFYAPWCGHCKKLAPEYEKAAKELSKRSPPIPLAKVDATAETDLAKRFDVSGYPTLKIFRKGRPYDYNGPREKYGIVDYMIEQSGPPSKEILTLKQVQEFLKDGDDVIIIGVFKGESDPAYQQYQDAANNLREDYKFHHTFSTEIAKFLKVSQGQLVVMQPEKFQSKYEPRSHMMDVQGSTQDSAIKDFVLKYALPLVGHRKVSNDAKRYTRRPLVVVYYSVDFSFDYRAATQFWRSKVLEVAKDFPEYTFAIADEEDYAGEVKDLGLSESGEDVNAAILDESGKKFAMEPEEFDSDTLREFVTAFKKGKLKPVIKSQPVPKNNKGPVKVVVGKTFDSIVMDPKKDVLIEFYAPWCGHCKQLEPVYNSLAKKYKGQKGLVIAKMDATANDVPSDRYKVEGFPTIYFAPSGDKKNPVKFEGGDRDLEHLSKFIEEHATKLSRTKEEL

[2] = target: T2, cysteines in MDA-MB-231 and Ramos cells (Homo sapiens, UniProt P23919)
T2 sequence (P23919 1-212): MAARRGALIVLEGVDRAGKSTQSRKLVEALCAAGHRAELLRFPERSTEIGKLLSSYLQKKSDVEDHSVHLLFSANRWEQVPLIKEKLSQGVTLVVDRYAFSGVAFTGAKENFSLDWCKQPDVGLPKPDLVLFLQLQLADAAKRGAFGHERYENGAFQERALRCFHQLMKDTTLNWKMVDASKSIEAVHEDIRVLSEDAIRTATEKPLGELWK

[3] = target: cysteines in MDA-MB-231 and Ramos cells (Homo sapiens, UniProt P38606)
Chain of cysteines in MDA-MB-231 and Ramos cells (Homo sapiens, UniProt P38606) (P38606 whole entry): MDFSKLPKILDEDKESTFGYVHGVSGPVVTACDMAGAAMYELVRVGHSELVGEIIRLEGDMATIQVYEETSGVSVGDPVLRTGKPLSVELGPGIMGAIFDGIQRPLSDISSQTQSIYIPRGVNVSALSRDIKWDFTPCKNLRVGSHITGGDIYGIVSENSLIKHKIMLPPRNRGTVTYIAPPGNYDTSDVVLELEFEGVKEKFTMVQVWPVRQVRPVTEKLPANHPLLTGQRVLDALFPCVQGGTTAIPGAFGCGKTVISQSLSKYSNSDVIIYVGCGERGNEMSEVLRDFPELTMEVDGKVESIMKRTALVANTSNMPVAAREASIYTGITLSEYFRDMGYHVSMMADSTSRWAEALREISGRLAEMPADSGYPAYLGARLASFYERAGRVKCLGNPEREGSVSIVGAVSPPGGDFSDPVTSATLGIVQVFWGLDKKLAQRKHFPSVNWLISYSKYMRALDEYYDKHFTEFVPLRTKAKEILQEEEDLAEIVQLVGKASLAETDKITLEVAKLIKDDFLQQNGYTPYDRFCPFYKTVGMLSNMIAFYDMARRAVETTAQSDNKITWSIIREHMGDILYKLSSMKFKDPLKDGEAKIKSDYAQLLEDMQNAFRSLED

[4] = target: T3, cysteines in MDA-MB-231 and Ramos cells (Homo sapiens, UniProt Q15084)
T3 sequence (Q15084 20-440): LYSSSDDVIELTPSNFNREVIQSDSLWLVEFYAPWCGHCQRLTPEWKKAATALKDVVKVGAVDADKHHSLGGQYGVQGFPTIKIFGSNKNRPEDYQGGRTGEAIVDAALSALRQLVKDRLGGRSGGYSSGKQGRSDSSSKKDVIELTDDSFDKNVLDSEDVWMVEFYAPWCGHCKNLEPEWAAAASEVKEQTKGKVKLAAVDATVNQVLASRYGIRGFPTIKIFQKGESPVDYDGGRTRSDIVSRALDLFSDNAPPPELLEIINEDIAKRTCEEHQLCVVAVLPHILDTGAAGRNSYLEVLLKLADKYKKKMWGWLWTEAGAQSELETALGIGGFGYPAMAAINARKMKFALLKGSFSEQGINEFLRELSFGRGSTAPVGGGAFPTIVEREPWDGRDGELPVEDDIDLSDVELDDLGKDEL

[5] = target: T4, cysteines in MDA-MB-231 and Ramos cells (Homo sapiens, UniProt Q99439)
T4 sequence (Q99439 1-309): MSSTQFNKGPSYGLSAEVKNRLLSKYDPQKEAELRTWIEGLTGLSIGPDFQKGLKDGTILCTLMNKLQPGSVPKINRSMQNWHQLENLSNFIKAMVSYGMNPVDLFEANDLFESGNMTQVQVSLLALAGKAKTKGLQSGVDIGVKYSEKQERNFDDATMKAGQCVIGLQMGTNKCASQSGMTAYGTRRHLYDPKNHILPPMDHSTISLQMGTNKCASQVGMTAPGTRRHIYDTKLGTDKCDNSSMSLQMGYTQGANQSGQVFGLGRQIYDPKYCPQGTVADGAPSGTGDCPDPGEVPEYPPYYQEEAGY

[6] = target: T5, cysteines in MDA-MB-231 and Ramos cells (Homo sapiens, UniProt Q99497)
T5 sequence (Q99497 1-189): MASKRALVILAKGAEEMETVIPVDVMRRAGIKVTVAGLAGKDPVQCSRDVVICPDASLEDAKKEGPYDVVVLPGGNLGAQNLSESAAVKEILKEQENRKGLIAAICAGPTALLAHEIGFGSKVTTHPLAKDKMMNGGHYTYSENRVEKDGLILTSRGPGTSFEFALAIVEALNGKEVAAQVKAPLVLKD

[7] = target: T6, cysteines in MDA-MB-231 and Ramos cells (Homo sapiens, UniProt Q9ULW0)
T6 sequence (Q9ULW0 1-747): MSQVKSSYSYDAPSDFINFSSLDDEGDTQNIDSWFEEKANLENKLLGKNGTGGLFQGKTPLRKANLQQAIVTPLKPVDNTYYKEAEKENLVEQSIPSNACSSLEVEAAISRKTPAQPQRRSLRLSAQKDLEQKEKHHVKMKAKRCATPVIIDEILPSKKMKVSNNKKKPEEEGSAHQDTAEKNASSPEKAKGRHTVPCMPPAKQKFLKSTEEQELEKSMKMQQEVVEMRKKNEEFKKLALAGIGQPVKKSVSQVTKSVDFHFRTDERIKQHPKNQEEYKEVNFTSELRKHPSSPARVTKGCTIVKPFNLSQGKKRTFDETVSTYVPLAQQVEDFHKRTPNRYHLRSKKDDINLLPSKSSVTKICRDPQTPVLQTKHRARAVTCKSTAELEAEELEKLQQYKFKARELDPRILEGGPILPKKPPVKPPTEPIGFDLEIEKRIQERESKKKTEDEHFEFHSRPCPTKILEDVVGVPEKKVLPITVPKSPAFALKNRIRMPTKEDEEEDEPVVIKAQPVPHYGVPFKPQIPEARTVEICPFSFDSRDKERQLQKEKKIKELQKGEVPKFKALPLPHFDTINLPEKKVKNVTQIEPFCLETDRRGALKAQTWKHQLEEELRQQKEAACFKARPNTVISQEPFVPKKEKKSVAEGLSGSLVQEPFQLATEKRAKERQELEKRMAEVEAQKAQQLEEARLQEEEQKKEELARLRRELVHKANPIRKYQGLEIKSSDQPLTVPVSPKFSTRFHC

Structure (SMILES) | isoTOP-ABPP ratio P13667_C206 [1]; 231 | isoTOP-ABPP ratio P13667_C555 ([1]; ramos) | isoTOP-ABPP ratio, cysteine P23919_C117 [2]; 231 | isoTOP-ABPP ratio P38606_C138 [3]; 231 | isoTOP-ABPP ratio Q15084_C55 ([4]; ramos) | isoTOP-ABPP ratio Q99439_C164 [5]; 231 | isoTOP-ABPP ratio Q99439_C164 ([5]; ramos) | isoTOP-ABPP ratio Q99497_C106 ([6]; ramos) | isoTOP-ABPP ratio Q9ULW0_C536 [7]; 231 | isoTOP-ABPP ratio Q15084_C55 [4]; 231 | isoTOP-ABPP ratio P13667_C555 [1]; 231 | isoTOP-ABPP ratio P23919_C163 [2]; 231 | isoTOP-ABPP ratio, Q15084_C190 [4]; 231 | isoTOP-ABPP ratio Q99497_C106 [6]; 231 | isoTOP-ABPP ratio P13667_C206 ([1]; ramos) | isoTOP-ABPP ratio P23919_C117 ([2]; ramos) | isoTOP-ABPP ratio, Q15084_C190 ([4]; ramos) | isoTOP-ABPP ratio Q9ULW0_C536 ([7]; ramos) | isoTOP-ABPP ratio P23919_C163 ([2]; ramos) | isoTOP-ABPP ratio P38606_C138 ([3]; ramos)
O=C(CCl)NCCc1c[nH]c2ccccc12 [compound 13] | 1.1 | 2.0 | 0.6 | 20.0 | 1.5 | 0.9 | 1.3 | 3.3 | 1.5 | – | – | – | – | – | – | – | – | – | – | –
O=C(CCl)NC12CC3CC(CC(C3)C1)C2 [compound 21] | 0.8 | – | 0.9 | 20.0 | – | 0.9 | – | – | 0.9 | 0.9 | – | – | – | – | – | – | – | – | – | –
CC(C)CCOCCNC(=O)CCl [compound 27] | 1.0 | – | – | 4.6 | – | – | – | – | 1.1 | 1.2 | 1.2 | 0.2 | 1.0 | 0.9 | – | – | – | – | – | –

Next, values leading:

isoTOP-ABPP ratio P13667_C206 [1]; 231 | isoTOP-ABPP ratio P13667_C555 ([1]; ramos) | isoTOP-ABPP ratio, cysteine P23919_C117 [2]; 231 | isoTOP-ABPP ratio P38606_C138 [3]; 231 | isoTOP-ABPP ratio Q15084_C55 ([4]; ramos) | isoTOP-ABPP ratio Q99439_C164 [5]; 231 | isoTOP-ABPP ratio Q99439_C164 ([5]; ramos) | isoTOP-ABPP ratio Q99497_C106 ([6]; ramos) | isoTOP-ABPP ratio Q9ULW0_C536 [7]; 231 | isoTOP-ABPP ratio Q15084_C55 [4]; 231 | isoTOP-ABPP ratio P13667_C555 [1]; 231 | isoTOP-ABPP ratio P23919_C163 [2]; 231 | isoTOP-ABPP ratio, Q15084_C190 [4]; 231 | isoTOP-ABPP ratio Q99497_C106 [6]; 231 | isoTOP-ABPP ratio P13667_C206 ([1]; ramos) | isoTOP-ABPP ratio P23919_C117 ([2]; ramos) | isoTOP-ABPP ratio, Q15084_C190 ([4]; ramos) | isoTOP-ABPP ratio Q9ULW0_C536 ([7]; ramos) | isoTOP-ABPP ratio P23919_C163 ([2]; ramos) | isoTOP-ABPP ratio P38606_C138 ([3]; ramos) | Structure (SMILES)
1.3 | – | – | – | – | 0.9 | – | – | 1.0 | 1.4 | – | 0.4 | – | 1.0 | – | – | – | – | – | – | COc1ccccc1OCCNC(=O)CCl [compound 28]
– | 1.5 | – | – | 1.0 | – | 1.0 | – | – | – | – | – | – | – | 1.4 | 1.6 | 1.0 | 1.8 | – | – | O=C(CCl)N1CCN(CC(=O)N2CCOCC2)CC1 [compound 29]
0.8 | 1.1 | – | – | – | 0.7 | 1.3 | 1.0 | – | 0.7 | 0.8 | – | 1.0 | 0.8 | 1.1 | – | – | – | 1.0 | 1.7 | C=CC(=O)N(Cc1cccnc1)c1cc(C(F)(F)F)cc(C(F)(F)F)c1 [compound 31]
1.9 | – | – | – | – | 1.8 | – | – | 20.0 | 2.0 | 2.6 | – | 2.8 | 20.0 | – | – | – | – | – | – | CC1CCc2ccccc2N1C(=O)CCl (stereo not shown) [compound 45]
5.3 | – | – | 10.6 | – | – | – | – | 1.4 | 5.0 | 6.0 | – | – | 1.4 | – | – | – | – | – | – | O=C(CCl)Nc1cccc2ncccc12 [compound 51]
